Results: patent US7160989B2, “Antibodies that recognize and bind phosphorylated human androgen receptor and methods of using same” (New York University, priority 2003, dated 2007)

Columns and labels:
[1] = target: P-S213 AR (Homo sapiens, UniProt P10275); conditions: 293 cells, wild type AR, treated with R1881; FIG. 3B
Method: Preparation of nuclear and cytoplasmic lysates: Nuclear and cytoplasmic lysates were prepared according to (Lee et al., 1988). Cells (1×10^6 cells) were collected by centrifugation, swelled in a hypotonic buffer, and lysed by extruding the cells through a 25-gauge hypodermic needle. This homogenate was then centrifuged at 14,000 rpm for 5 min to pellet the nuclei, and the supernatant was saved as the cytoplasmic fraction. The proteins were extracted by re-suspension of the nuclear pellet in a high salt buffer and separation of debris by centrifugation. The resulting supernatant was retained as the nuclear fraction.
To assess the subcellular localization of AR-P-S213, fractionation studies were conducted in the presence of R1881.

[2] = target: T1, AR S213 phosphorylation (Homo sapiens, UniProt P10275); test: Immunoblot of AR S213 phosphorylation in 293 cells transfected with wild type AR; format: cell-based
T1 sequence (P10275 1-920): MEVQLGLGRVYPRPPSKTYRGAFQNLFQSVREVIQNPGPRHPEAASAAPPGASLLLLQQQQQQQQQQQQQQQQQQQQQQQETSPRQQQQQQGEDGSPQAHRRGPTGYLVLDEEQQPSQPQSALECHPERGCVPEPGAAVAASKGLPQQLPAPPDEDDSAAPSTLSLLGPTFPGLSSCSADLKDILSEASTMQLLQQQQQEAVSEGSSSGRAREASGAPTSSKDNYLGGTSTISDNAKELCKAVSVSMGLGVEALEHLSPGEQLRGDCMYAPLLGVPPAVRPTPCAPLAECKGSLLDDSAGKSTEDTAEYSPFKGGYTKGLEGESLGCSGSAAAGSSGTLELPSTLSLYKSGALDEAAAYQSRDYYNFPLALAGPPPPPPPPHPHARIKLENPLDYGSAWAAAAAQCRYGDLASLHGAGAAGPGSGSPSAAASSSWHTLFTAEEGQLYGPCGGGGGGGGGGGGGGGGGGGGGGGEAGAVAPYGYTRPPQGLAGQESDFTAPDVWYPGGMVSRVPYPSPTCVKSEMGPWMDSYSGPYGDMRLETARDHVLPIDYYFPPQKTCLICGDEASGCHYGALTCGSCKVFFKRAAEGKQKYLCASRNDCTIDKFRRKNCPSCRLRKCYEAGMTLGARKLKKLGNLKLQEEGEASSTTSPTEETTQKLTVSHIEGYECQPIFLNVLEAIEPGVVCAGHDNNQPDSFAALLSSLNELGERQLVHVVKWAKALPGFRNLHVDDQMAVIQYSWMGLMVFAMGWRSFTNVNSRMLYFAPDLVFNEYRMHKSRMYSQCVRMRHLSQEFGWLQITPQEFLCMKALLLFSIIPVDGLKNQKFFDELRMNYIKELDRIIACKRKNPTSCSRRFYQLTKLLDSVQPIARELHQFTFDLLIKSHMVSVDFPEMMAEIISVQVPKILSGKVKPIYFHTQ

[3] = test system: phospho-MAPK (P-MAPK); test: Immunoblot of phospho-MAPK in transfected 293 cells; format: cell-based, human; conditions: 293 cells treated with IGF-1; FIG. 4B

| Molecule | Sub-cellular localization of P-S213 AR [1] | AR S213 phosphorylation at 10 nM [2] | AR S213 phosphorylation at lower levels [2] | AR S213 phosphorylation, compound alone [2] | AR phosphorylation by hormone [2] | Earliest time at which phosphorylation may occur [2] | Time at which phosphorylation above background is obvious [2] | AR phosphorylation with IGF-1 alone ([2]; 293 cells, IGF-1 alone 5 or 10 minutes or 2 hours, absence of R1881, FIG. 4B) | MAPK phosphorylation [3] |
| --- | --- | --- | --- | --- | --- | --- | --- | --- | --- |
| C[C@]1(O)CC[C@H]2[C@@H]3CCC4=CC(=O)CCC4=C3C=C[C@@]21C [R1881] | predominantly nuclear | robust phosphorylation | not at lower levels | phosphorylated | robust AR phosphorylation | ≥ 10 min | 60 min |  |  |
| IGF-1: growth factor used to treat 293 cells; phosphorylates MAPK |  |  |  |  |  |  |  | does not result in AR phosphorylation | phosphorylated |
